Target: T1, NR1A/NR2B NMDA receptor subtype (Rattus norvegicus, UniProt P35439+Q00960)
T1 construct: buffy coat membrane fraction was prepared from frozen adult rat forebrains; tissue Zivic-Miller Laboratories, Inc; host or cells: adult rat forebrain membranes
Assay: [3H]Ifenprodil binding assay (IFPNR), rat forebrain membranes
Details: Table 1, 4 nM [3H]-ifenprodil, read-out: IFPNR (IC50 μM)
Protocol: b. [^3H]Ifenprodil Binding Assay (IFPNR) Protocol:
Ifenprodil, [phenyl-^3H]-(specific activity, 66.2 Ci/mmol) was purchased from Dupont NEN Research Products (Boston, Mass.). Ifenprodil tartrate was purchased from Research Biochemicals International (Natick, Mass.). HEPES, glutamate and glycine were purchased from Sigma Chemical Co. (St. Louis, Mo.).
All buffers and reagents used in assay incubations or to dissolve drugs were prepared using water purified through a Milli-Q reverse osmosis system (Millipore Corp., Bedford, Mass.) and treated with UV emissions. Prior to use in the assays buffers were further filtered through a sterile Coming filtration unit (Coming Glass Works, Coming, N.Y.) containing a 0.2 micron filter. Buffer used to rinse the membranes on the assay filters was prepared with purified water, but was not refiltered and was stored no longer than 5 days. Stock solutions of the drugs (usually 10 mM) were dissolved in 20 mM HEPES-KOH buffer pH 7.4 (assay buffer) with the addition of 1 to 5 μL of glacial AcOH, if needed to keep them in solution. Eliprodil was used as the reference NMDA antagonist. A stock solution of eliprodil was prepared, and was buffered with the addition of 10% DMSO. All subsequent dilutions from the stock solution were made in buffer.
An extensively washed buffy coat membrane fraction was prepared from frozen adult rat forebrains (Zivic-Miller Laboratories, Inc., Zelienople, Pa.) as described by Coughenour L. L.; Cordon, J. J., J. Pharmacol. Exp. Ther., 1997;280:584-592, and stored at −80° C. On the day of the assay, pellets of the frozen membrane fractions were resuspended in 35 mL of assay buffer at pH 7.4 using a POLYTRON (Kinematica A. G. Company, Littau, Switzerland) mixer at setting 6. After incubation at 37° C. for 30 minutes in a shaking water bath, the homogenate was centrifuged 40,000×g for 10 minutes at 4° C. The pellets were resuspended in fresh buffer and centrifuged 3 more times before final suspension for use in the assay.
(iii) [^3H]Ifenprodil Binding protocol:
Triplicate incubations were carried out in a volume of 0.5 mL in 1.3 mL polypropylene tubes (Marsh Biomedical Products Inc, Rochester, N.Y.) for 2 hours at room temperature. Incubations contained invention compounds, membranes (100-200 μg protein) and 4 nM [^3H]-ifenprodil in 20 mM HEPES-KOH buffer, pH 7.4 (assay buffer). Assays were started by addition of the membranes. Bound radioligand was separated by filtration under reduced pressure using a TOMTEC Mach II, 96-well cell harvester (Tomtec Inc, Orange, Conn.). Filtration was through Whatman GF/B glass fiber filters (Whatman Ltd., Maidstone, England), which had been soaked for at least 15 minutes in 0.3% polyethylenimine and allowed to air dry. The filters were rinsed with 3 mL of ice cold assay buffer within 6 seconds. Air was allowed to pass through the filters for an additional 10 seconds to remove residual moisture. The filter mat was supported on a cold (−20° C.) TEFLON (E. I. Du Pont de Nemours and Company, Wilmington, Del.) coated support, and filters from individual wells were separated and placed in Mini Poly-Q vials (Becklman Instruments Inc, Fullerton, Calif.) and filled with 4 mL of scintillation cocktail (Beckman Ready Protein^+). Radioactivity retained on the filter was determined by liquid scintillation spectrophotometry. Nonspecific binding was defined as the binding in the presence of […] ifenprodil. Ninety percent of the total binding of ifenprodil was specific binding at the NR1A/NR2B NMDA receptor subtype active site (as opposed to binding at a remote site).
Binding curves were statistically analyzed for a best 1- or 2-site competition fit using GRAPHPAD PRISM software (GraphPad Software Inc, San Diego, Calif.), a computer program used to analyze and graph scientific data. The normalized data was fitted by nonweighted nonlinear regression to either [formula]
Control data was entered as 100%, and no parameters were constrained. […]

T1 sequence (Q00960 27-1482, other chains not shown): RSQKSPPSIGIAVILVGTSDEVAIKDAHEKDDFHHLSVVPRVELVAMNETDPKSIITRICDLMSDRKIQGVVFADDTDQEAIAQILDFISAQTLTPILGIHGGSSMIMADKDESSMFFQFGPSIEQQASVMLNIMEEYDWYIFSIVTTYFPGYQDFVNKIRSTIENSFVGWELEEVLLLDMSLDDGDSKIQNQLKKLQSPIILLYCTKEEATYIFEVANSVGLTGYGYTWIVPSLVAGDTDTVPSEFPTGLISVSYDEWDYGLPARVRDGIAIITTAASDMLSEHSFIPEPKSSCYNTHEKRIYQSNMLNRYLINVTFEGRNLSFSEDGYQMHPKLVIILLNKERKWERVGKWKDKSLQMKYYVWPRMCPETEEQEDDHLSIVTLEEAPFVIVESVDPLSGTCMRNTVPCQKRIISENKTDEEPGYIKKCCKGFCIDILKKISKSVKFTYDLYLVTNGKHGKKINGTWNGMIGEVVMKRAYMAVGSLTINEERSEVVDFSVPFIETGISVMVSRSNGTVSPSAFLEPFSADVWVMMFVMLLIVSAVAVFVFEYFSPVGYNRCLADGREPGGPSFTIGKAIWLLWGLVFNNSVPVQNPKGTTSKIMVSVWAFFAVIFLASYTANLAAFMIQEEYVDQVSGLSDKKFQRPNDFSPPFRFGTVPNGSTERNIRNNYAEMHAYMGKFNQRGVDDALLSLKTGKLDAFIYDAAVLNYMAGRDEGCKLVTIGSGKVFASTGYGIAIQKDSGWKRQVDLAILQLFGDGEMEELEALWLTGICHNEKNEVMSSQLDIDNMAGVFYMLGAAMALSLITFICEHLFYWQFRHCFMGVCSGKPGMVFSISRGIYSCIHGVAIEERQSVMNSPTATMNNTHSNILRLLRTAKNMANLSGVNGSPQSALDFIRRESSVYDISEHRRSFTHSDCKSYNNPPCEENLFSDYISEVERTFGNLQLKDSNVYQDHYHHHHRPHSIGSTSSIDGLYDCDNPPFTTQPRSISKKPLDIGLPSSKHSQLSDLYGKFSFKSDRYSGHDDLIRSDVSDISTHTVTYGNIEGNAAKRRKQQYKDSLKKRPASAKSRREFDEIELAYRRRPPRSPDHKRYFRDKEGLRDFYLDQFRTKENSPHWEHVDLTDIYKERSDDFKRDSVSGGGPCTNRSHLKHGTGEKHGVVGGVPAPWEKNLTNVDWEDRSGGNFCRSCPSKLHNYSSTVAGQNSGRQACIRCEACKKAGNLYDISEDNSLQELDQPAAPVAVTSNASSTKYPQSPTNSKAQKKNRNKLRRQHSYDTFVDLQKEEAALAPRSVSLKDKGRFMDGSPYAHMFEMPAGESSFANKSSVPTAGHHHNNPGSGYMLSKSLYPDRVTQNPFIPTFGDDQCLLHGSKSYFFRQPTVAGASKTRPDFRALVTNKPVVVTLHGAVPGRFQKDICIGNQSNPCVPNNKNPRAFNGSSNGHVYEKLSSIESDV

Compound | IC50
O=c1[nH]c2ccc(C3=NOC(CN4CCC(Cc5ccccc5)CC4)C3)cc2o1 (racemic) [Example 1, 6-[5-(4-Benzylpiperidin-1-ylmethyl)-4,5-dihydroisoxazol-3-yl]-3H-benzoxazol-2-one] | 0.033 µM
O=c1[nH]c2ccc(C3=NOC(CN4CCC(Cc5ccc(F)cc5)CC4)C3)cc2o1 (single isomer, unassigned; (-)) [Example 4b, (−)-6-{5-[4-(4-Fluorobenzyl)piperidin-1-ylmethyl]4,5-dihydroisoxazol-3-yl}-3H-benzoxazol-2-one] | 0.28 µM
